The values that follow are results of earlier work, collected in patent US10206949B2, “Composition that relieves heartburn, GERD and hangovers” (priority 2015, dated 2019).

The mark [1] stands for this setting: patients with acute renal or cardiac failure.

On to `CNC(=C[N+](=O)[O-])NCCSCc1ccc(CN(C)C)o1` [ranitidine, N-(2-[(5-[(dimethylamino)methyl]furan-2-yl)methylthio]ethyl)-N′-methyl-2-nitroethene-1,1-diamine], for which, under “in vivo”, the “false positives for methamphetamine on drug tests” value is reported as “known to give false positives”. For the same compound, the fungal sepsis result (patients on ranitidine) is given as “observed in some patients”. Under setting [1], the mucosal perfusion entry is given as “decrease mucosal perfusion” and the risk of death result was “increases their risk of death”.
